Assay [1] deals with T1, Genome polyprotein (dengue virus type 2, UniProt P29990). Type of assay: functional, Thailand/16681/1984.
Assay [2] deals with T1, Genome polyprotein. It counts as functional, Thailand/16681/1984. This is another data set of the same source.

“And” between values parts separate entries of the source, which are not always exact repeats. Equal values may be shown once.

T1 sequence (P29990 1346-1475 limits assumed): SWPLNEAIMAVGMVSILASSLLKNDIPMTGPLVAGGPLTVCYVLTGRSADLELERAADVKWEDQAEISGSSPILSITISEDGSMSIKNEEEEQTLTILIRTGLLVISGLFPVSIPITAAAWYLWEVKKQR
T1 sequence (P29990 1476-2093 limits assumed): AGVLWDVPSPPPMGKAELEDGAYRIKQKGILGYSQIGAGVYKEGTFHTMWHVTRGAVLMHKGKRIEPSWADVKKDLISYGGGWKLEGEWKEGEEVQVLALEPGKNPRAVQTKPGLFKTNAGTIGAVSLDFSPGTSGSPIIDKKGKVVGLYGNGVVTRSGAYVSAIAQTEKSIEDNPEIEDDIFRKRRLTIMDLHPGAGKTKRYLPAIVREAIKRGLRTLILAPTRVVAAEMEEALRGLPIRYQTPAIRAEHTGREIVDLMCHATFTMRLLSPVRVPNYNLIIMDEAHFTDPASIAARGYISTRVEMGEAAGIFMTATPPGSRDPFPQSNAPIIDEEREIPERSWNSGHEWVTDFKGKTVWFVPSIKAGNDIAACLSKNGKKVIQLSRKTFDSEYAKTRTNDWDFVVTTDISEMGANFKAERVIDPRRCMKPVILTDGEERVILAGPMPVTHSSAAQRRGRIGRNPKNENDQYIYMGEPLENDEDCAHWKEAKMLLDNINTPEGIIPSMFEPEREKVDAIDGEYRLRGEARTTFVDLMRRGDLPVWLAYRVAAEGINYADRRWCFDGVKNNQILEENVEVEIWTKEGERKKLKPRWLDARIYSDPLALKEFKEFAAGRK

For orientation: IC50 means the concentration at which inhibition is half-maximal. Turning to `CN1CCC([C@H]2CCCN(C(=O)Nc3ccc4c(c3)CNC4)C2)CC1`, the concentration for half-maximal inhibition (IC50) on Genome polyprotein [1] is over 99.5 µM; against Genome polyprotein [2] it was over 100 µM.

For `COCCNC(=O)[C@H](Nc1ccc2c(c1)CNC2)c1cc(Cl)cc(C2CC2)c1`, the IC50 at Genome polyprotein [1] is over 99.5 µM; against Genome polyprotein [2], over 100 µM.

Take `Cc1cc(NC(=O)c2cc(Cl)cc3[nH]ncc23)ccc1N1CCNCC1`: the IC50 against Genome polyprotein [1] is 83.5 µM; on Genome polyprotein [2] it was over 100 µM.

On to `Cc1ccc(C)n1-c1ccc(Cl)cc1C(=O)Nc1ccc2c(c1)CNC2`, for which the IC50 against Genome polyprotein [1] is over 99.5 µM; at Genome polyprotein [2], over 100 µM.

As for `N#C[C@H](Nc1ccc2c(c1)CNC2)c1cccc2[nH]ncc12`, the IC50 on Genome polyprotein [1] was over 99.5 µM; against Genome polyprotein [2], over 100 µM.

With `O=C(Nc1ccc2c(c1)CNC2)c1cc(Cl)cc2nccnc12`, the IC50 was 73.5 µM on Genome polyprotein [1] and 77.9 µM at Genome polyprotein [2].

`O=C(Nc1ccc2c(c1)CNC2)N1CCC2(C1)CC(F)(F)C2`: the results for the IC50 at Genome polyprotein [1] and at Genome polyprotein [2] were over 99.5 µM and over 100 µM, respectively.

With `O=C(Nc1ccc2c(c1)CNC2)c1c(Br)cc(Cl)c2[nH]ncc12`, the values for the IC50 on Genome polyprotein [1] and against Genome polyprotein [2] were over 99.5 µM and over 100 µM, respectively.

For `O=C(Nc1ccc2c(c1)CNC2)c1c(Br)ccc2[nH]ncc12`, the IC50 on Genome polyprotein [1] is over 99.5 µM; at Genome polyprotein [2], over 100 µM.

Turning to `N#C[C@]1(Nc2ccc3c(c2)CNC3)C(=O)Nc2ccc(Cl)cc21`, the IC50 against Genome polyprotein [1] was over 99.5 µM; against Genome polyprotein [2], over 100 µM.

On to `O=C(Nc1ccc2c(c1)CNC2)c1nccc2[nH]ncc12`, for which the figures for the IC50 against Genome polyprotein [1] and against Genome polyprotein [2] were over 99.5 µM and over 100 µM, respectively.

Take `CC(C)(C)OC(=O)N1Cc2ccc(NC(=O)c3cc(Cl)cc4[nH]ncc34)cc2C1`: the IC50 against Genome polyprotein [1] was over 99.5 µM; against Genome polyprotein [2] it was over 100 µM.

On to `N#Cc1cc(Cl)cc([C@H](C#N)Nc2ccc3c(c2)CNC3)c1`, for which the IC50 was over 99.5 µM against Genome polyprotein [1] and over 100 µM on Genome polyprotein [2].

On to `Cc1cnc([C@H]2CCCN(C(=O)Nc3ccc4c(c3)CNC4)C2)s1`, for which the 50% inhibitory concentration (IC50) at Genome polyprotein [1] is over 99.5 µM; at Genome polyprotein [2], over 100 µM.

Consider `CC(C)c1ccc(Cl)cc1C(=O)Nc1ccc2c(c1)CNC2`, for which the concentration for half-maximal inhibition (IC50) against Genome polyprotein [1] is over 99.5 µM; at Genome polyprotein [2] it was over 100 µM.

In the case of `Cc1c(C(=O)Nc2cc(CCCN)ccn2)cnn1C1CC1`, the IC50 at Genome polyprotein [1] was over 99.5 µM; against Genome polyprotein [2] it was over 100 µM.

As to `O=C(Nc1ccc2c(c1)CNC2)c1cc(Cl)ccc1OC1CCCC1`, the IC50 on Genome polyprotein [1] is over 99.5 µM; at Genome polyprotein [2] it was over 100 µM.

Regarding `O=C(NC1CCOCC1)[C@H](Nc1ccc2c(c1)CNC2)c1cc(Cl)cc(C2CC2)c1`, the IC50 was > 99.5 µM and 37.7 µM and 56.5 µM against Genome polyprotein [1]; over 100 µM against Genome polyprotein [2].

`CCc1cc(Cl)cc(C(=O)Nc2ccc3c(c2)CNC3)c1`: the figures for the IC50 at Genome polyprotein [1] and against Genome polyprotein [2] were over 99.5 µM and over 100 µM, respectively.

With `O=C(Nc1ccc2c(c1)CNC2)c1cc(F)cc2[nH]ncc12`, the IC50 was 59.5 µM against Genome polyprotein [1]; 37.8 µM and 24.3 µM at Genome polyprotein [2].

As to `Cn1ncc2c(C(=O)Nc3ccc4c(c3)CNC4)cc(-c3cccnc3)nc21`, the IC50 against Genome polyprotein [1] was 92.7 µM; against Genome polyprotein [2], over 100 µM.

With `O=C(NCC1CCOCC1)[C@H](Nc1ccc2c(c1)CNC2)c1cc(Cl)cc2[nH]ncc12`, the results for the IC50 at Genome polyprotein [1] and at Genome polyprotein [2] were over 99.5 µM and over 100 µM, respectively.

Regarding `NCc1cc(NC(=O)c2cc(Cl)cc(NC(=O)OCc3ccccc3)c2)cc(-c2ccc(OCC(=O)O)nc2)c1`, the IC50 at Genome polyprotein [1] was over 99.5 µM; against Genome polyprotein [2], over 100 µM.

Take `O=C(NCc1ccc(F)cc1)[C@H](Nc1ccc2c(c1)CNC2)c1cc(Cl)cc2[nH]ncc12`: the IC50 against Genome polyprotein [1] was over 99.5 µM; against Genome polyprotein [2], over 100 µM.

Regarding `COCCN(C)Cc1ccnc(NC(=O)c2cc(C3CC3)n(C)c2C)c1`, the IC50 against Genome polyprotein [1] is over 99.5 µM; against Genome polyprotein [2], over 100 µM.

Consider `Cc1c(C(=O)Nc2ccc3c(c2)CNC3)cc(C2CC2)n1C`, for which the IC50 on Genome polyprotein [1] was over 99.5 µM; on Genome polyprotein [2], over 100 µM.

With `Cc1ccc(C(=O)Nc2ccc3c(c2)CNC3)c2[nH]ncc12`, the IC50 is over 99.5 µM at Genome polyprotein [1] and over 100 µM against Genome polyprotein [2].

For the molecule `O=C(Nc1ccc2c(c1)CNC2)c1cc(Cl)ccc1-n1ccnc1`, the IC50 at Genome polyprotein [1] was over 99.5 µM; against Genome polyprotein [2], over 100 µM.

The values above are taken from ChEMBL document CHEMBL5604063, “ASAP - DENV-2 NS2B-NS3 protease fluorescence dose response” (2024).
